US20230339854A1, “Negative Allosteric Modulation of GluN3-Containing N-Methyl-D-Aspartate Receptors” (Emory University, priority 2020, published 2023)

Each compound was assayed against T1, human GluN1^FA,TL/GluN3A receptors (Homo sapiens, UniProt Q8TCU5) (assay: Two-electrode voltage-clamp recordings of GluN1^FA,TL/GluN3A receptors in Xenopus oocytes). Conditions: 30 μM drug.
T1 construct: Human GluN3A (NP_597702.2) and rat GluN3B (NP_579842.2) were synthesized and subcloned into SP6 plasmids; expressed in transfected cells; host or cells: Xenopus laevis oocytes, cRNA injection (GluN1:GluN3 1:3)
T1 sequence (Q8TCU5 24-1115, other chains not shown): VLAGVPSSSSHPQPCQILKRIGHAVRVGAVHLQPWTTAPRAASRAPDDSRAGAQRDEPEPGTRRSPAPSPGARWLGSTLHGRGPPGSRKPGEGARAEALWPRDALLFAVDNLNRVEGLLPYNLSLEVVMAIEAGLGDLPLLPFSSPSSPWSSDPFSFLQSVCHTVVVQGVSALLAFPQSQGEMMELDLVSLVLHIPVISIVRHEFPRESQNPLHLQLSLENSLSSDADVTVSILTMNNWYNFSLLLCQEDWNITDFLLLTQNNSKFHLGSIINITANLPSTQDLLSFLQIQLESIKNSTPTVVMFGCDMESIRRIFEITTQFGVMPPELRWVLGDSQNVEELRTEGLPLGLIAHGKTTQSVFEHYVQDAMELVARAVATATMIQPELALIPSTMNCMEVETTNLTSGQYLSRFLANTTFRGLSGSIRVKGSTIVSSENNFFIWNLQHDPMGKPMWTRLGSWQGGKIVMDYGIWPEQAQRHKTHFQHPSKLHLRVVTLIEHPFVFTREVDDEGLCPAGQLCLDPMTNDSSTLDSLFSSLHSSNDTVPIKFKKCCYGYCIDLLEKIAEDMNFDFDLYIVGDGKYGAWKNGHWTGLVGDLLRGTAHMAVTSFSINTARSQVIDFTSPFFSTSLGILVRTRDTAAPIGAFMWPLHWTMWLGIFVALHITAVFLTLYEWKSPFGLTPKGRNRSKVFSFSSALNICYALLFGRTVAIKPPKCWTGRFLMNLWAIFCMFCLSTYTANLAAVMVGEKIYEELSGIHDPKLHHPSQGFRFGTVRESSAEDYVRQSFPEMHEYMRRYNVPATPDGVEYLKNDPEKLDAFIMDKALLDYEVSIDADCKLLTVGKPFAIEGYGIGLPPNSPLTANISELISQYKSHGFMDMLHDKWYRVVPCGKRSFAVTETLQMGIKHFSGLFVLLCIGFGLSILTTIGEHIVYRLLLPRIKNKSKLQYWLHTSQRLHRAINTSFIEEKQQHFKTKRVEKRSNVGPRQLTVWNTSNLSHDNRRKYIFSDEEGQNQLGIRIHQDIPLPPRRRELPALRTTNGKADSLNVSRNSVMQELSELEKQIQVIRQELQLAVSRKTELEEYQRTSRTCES
Format: cell-based
Excerpt: cDNA encoding human wild-type (WT) GluN1-1a (GenBank accession numbers NP_015566, hereafter GluN1) and rat GluN1-1a (NP_058706.1) were synthesized and subcloned into pGEMHE plasmid; some experiments used the rat splice variant GluN1-4a (NP_001257531.1). Human GluN3A (NP_597702.2) and rat GluN3B (NP_579842.2) were synthesized and subcloned into SP6 plasmids. For most experiments, human GluN1 was co-expressed with human GluN3A, except for mutagenesis experiments where rat GluN1 was co-expressed with human GluN3A. Rat GluN1-4a was always expressed with rat GluN3B.
Defolliculated Xenopus laevis oocytes (stage V-VI) were obtained from Ecocyte BioScience (Austin, Texas), or prepared from commercially available Xenopus ovaries (Xenopus 1, Dexter, MI) as previously described (Hansen, et al., Mol. Pharmacol., 2013). A Drummond Nanoject II (Broomall, PA) was used to inject oocytes with cRNAs encoding GluN1 and GluN3 at a 1:3 ratio in RNase-free water. The cRNA was diluted as needed to give responses with amplitudes ranging between 200-2000 nA (0.2-10 ng total cRNA). Following cRNA injection, the oocytes were stored at 15-19° C. in Barth's solution that contained (in mM) 88 NaCl, 2.4 NaHCO3, 1 KCl, 0.33 Ca(NO3)2, 0.41 CaCl2), 0.82 MgSO4, and 5 Tris-HCl (pH 7.4 with NaOH), supplemented with 1 μg/ml streptomycin (Invitrogen, Carlsbad, CA) and 100 μg/ml gentamicin (Fisher Scientific, Pittsburgh, PA). Recordings were performed 2-5 days following cRNA microinjection at room temperature (23° C.) using a two-electrode voltage-clamp amplifier (OC725, Warner Instrument, Hamilton, CT). The signal was low-pass filtered at 10-20 Hz (4-pole, −3 dB Bessel) and digitized at the Nyquist rate using PCI-6025E or USB-6212 BNC data acquisition boards (National Instruments, Austin, TX) using EasyOocyte (http://www.easyoocyte.io/). Oocytes were placed in a custom-made chamber and continuously perfused (2.5 ml/min) with oocyte recording solution containing (in mM) 90 NaCl, 1 KCl, 10 HEPES, 0.5-1.0 BaCl2, and 0.01 EDTA (pH 7.4 with NaOH). Solutions were applied by gravity, and solution exchange was controlled through a rotary valve (Hamilton, Reno, NV). Recording electrodes were filled with 0.3-3.0 M KCl, and current responses were recorded at a holding potential of −40 mV.
Response (%)=(100−minimum)/(1+([concentration]/IC50)^nH)+minimum (2) • where nH is the Hill slope, IC50 is the concentration that produces a half-maximal effect, and minimum is the degree of residual inhibition at a saturating concentration of the negative allosteric modulator.
The afore-referenced compounds were screened in the same assay as EU1180-438 to determine their effects on hGluN1^FA,TL/hGluN3A receptors. Selected compounds that inhibited by more than 20% at the concentration at which they were initially evaluated (either 10 or 30 μM) were analyzed further, and a dose-response curve was generated to determine their IC50 values.

hGluN1^FA,TL/hGluN3A (100 × Idrug/Icontrol at 30 μM drug) [%] | Structure (SMILES)
44 | COc1ccc(OCC(c2ccc(OC)cc2)N2Cc3ccc(Cl)cc3C2=O)cc1 (stereo not drawn) [EU1180-516, 6-Chloro-2-(2-(4-methoxyphenoxy)-1-(4-methoxyphenyl)ethyl)isoindolin-1l-one]

Same assay, conditions: read-out: hGluN1^FA,TL/hGluN3A (100 × Idrug/Icontrol at 30 μM drug)

Structure (SMILES) | remaining activity at 30 µM [%]
Cc1cccc(OCC(c2ccc(OC(C)C)cc2)N2Cc3ccc(F)cc3C2=O)n1 (stereo not drawn) [EU1180-512, 6-fluoro-2-(1-(4-isopropoxyphenyl)-2-((6-methylpyridin-2-yl)oxy)ethyl)isoindolin-1-one] | 36
Cc1cccc(OCC(c2ccc(OC(C)C)cc2)N2Cc3cc(F)ccc3C2=O)n1 (stereo not drawn) [EU1180-513, 5-fluoro-2-(1-(4-isopropoxyphenyl)-2-((6-methylpyridin-2-yl)oxy)ethyl)isoindolin-1-one] | 87
Cc1cccc(OCC(c2ccc(OC(C)C)cc2)N2Cc3ccc(Br)cc3C2=O)n1 (stereo not drawn) [EU1180-514, 6-bromo-2-(1-(4-isopropoxyphenyl)-2-((6-methylpyridin-2-yl)oxy)ethyl)isoindolin-1-one] | 93
Cc1cccc(OCC(c2ccc(OC(C)C)cc2)N2Cc3cc(Br)ccc3C2=O)n1 (stereo not drawn) [EU1180-515, 5-bromo-2-(1-(4-isopropoxyphenyl)-2-((6-methylpyridin-2-yl)oxy)ethyl)isoindolin-1-one] | 100
COc1ccc(OCC(c2ccc(OC)c(OC)c2)N2Cc3ccc(C(F)(F)F)cc3C2=O)cc1 (stereo not drawn) [EU1180-523, 2-(1-(3,4-Dimethoxyphenyl)-2-(4-methoxyphenoxy)ethyl)-6-(trifluoromethyl)isoindolin-1-one] | 104
COc1ccc(OCC(c2ccc(OC)c(OC)c2)N2Cc3cc(Cl)ccc3C2=O)cc1 (stereo not drawn) [EU1180-524, 5-Chloro-2-(1-(3,4-dimethoxyphenyl)-2-(4-methoxyphenoxy)ethyl)isoindolin-1-one] | 102
COc1ccc(OCC(c2ccc(OC)c(OC)c2)N2Cc3ccc(Cl)cc3C2=O)cc1 (stereo not drawn) [EU1180-525, 6-Chloro-2-(1-(3,4-dimethoxyphenyl)-2-(4-methoxyphenoxy)ethyl)isoindolin-1-one] | 94
COc1ccc(OCC(c2ccc(OC)c(OC)c2)N2Cc3cc(Br)ccc3C2=O)cc1 (stereo not drawn) [EU1180-526, 5-Bromo-2-(1-(3,4-dimethoxyphenyl)-2-(4-methoxyphenoxy)ethyl)isoindolin-1-one] | 101
COc1ccc(OCC(c2ccc(OC)c(OC)c2)N2Cc3ccc(Br)cc3C2=O)cc1 (stereo not drawn) [EU1180-527, 6-Bromo-2-(1-(3,4-dimethoxyphenyl)-2-(4-methoxyphenoxy)ethyl)isoindolin-1-one] | 94
COc1ccc(OCC(c2ccc(OC)c(OC)c2)N2Cc3ccc(F)cc3C2=O)cc1 (stereo not drawn) [EU1180-529, 2-(1-(3,4-Dimethoxyphenyl)-2-(4-methoxyphenoxy)ethyl)-6-fluoroisoindolin-1-one] | 84
COc1ccc(OCC(c2ccc(OC)cc2F)N2Cc3ccccc3C2=O)cc1 (stereo not drawn) [EU1180-530, 2-(1-(2-Fluoro-4-methoxyphenyl)-2-(4-methoxyphenoxy)ethyl)isoindolin-1-one] | 41
COc1ccc(OCC(c2ccc(OC)cc2F)N2Cc3ccc(C(F)(F)F)cc3C2=O)cc1 (stereo not drawn) [EU1180-531, 2-(1-(2-Fluoro-4-methoxyphenyl)-2-(4-methoxyphenoxy)ethyl)-6-(trifluoromethyl)isoindolin-1-one] | 99
COc1ccc(OCC(c2ccc(OC)cc2F)N2Cc3cc(Cl)ccc3C2=O)cc1 (stereo not drawn) [EU1180-532, 5-Chloro-2-(1-(2-fluoro-4-methoxyphenyl)-2-(4-methoxyphenoxy)ethyl)isoindolin-1-one] | 95
COc1ccc(OCC(c2ccc(OC)cc2F)N2Cc3ccc(Cl)cc3C2=O)cc1 (stereo not drawn) [EU1180-533, 6-Chloro-2-(1-(2-fluoro-4-methoxyphenyl)-2-(4-methoxyphenoxy)ethyl)isoindolin-1-one] | 49
COc1ccc(OCC(c2ccc(OC)cc2F)N2Cc3cc(Br)ccc3C2=O)cc1 (stereo not drawn) [EU1180-534, 5-Bromo-2-(1-(2-fluoro-4-methoxyphenyl)-2-(4-methoxyphenoxy)ethyl)isoindolin-1-one] | 99
COc1ccc(OCC(c2ccc(OC)cc2F)N2Cc3ccc(Br)cc3C2=O)cc1 (stereo not drawn) [EU1180-535, 6-Bromo-2-(1-(2-fluoro-4-methoxyphenyl)-2-(4-methoxyphenoxy)ethyl)isoindolin-1-one] | 83
CC(C)Oc1ccc(C(COc2ccc(OC(F)(F)F)cc2)N2Cc3ccccc3C2=O)cc1 (stereo not drawn) [EU1180-538, 2-(1-(4-isopropoxyphenyl)-2-(4-(trifluoromethoxy)phenoxy)ethyl)isoindolin-1-one] | 99
CC(C)Oc1ccc(C(COc2ccc(OC(F)(F)F)cc2)N2Cc3ccc(C(F)(F)F)cc3C2=O)cc1 (stereo not drawn) [EU1180-539, 2-(1-(4-isopropoxyphenyl)-2-(4-(trifluoromethoxy)phenoxy)ethyl)-6-(trifluoromethyl)isoindolin-1-one] | 99
CC(C)Oc1ccc(C(COc2ccc(OC(F)(F)F)cc2)N2Cc3ccc(Cl)cc3C2=O)cc1 (stereo not drawn) [EU1180-540, 6-chloro-2-(1-(4-isopropoxyphenyl)-2-(4-(trifluoromethoxy)phenoxy)ethyl)isoindolin-1-one] | 100
CC(C)Oc1ccc(C(COc2ccc(OC(F)(F)F)cc2)N2Cc3cc(Cl)ccc3C2=O)cc1 (stereo not drawn) [EU1180-541, 5-chloro-2-(1-(4-isopropoxyphenyl)-2-(4-(trifluoromethoxy)phenoxy)ethyl)isoindolin-1-one] | 100

More lines, now with the values ahead:

remaining activity at 30 µM [%] | Structure (SMILES)
92 | COc1ccc(OCC(c2ccc(OC)cc2)N2Cc3cc(Cl)ccc3C2=O)cc1 (stereo not drawn) [EU1180-517, 5-Chloro-2-(2-(4-methoxyphenoxy)-1-(4-methoxyphenyl)ethyl)isoindolin-1-one]
86 | COc1ccc(OCC(c2ccc(OC)cc2)N2Cc3ccc(C(F)(F)F)cc3C2=O)cc1 (stereo not drawn) [EU1180-518, 2-(2-(4-Methoxyphenoxy)-1-(4-methoxyphenyl)ethyl)-6-(trifluoromethyl)isoindolin-1-one]
90 | COc1ccc(OCC(c2ccc(OC)cc2)N2Cc3cc(Br)ccc3C2=O)cc1 (stereo not drawn) [EU1180-519, 5-Bromo-2-(2-(4-methoxyphenoxy)-1-(4-methoxyphenyl)ethyl)isoindolin-1-one]
64 | COc1ccc(OCC(c2ccc(OC)cc2)N2Cc3ccc(Br)cc3C2=O)cc1 (stereo not drawn) [EU1180-520, 6-Bromo-2-(2-(4-methoxyphenoxy)-1-(4-methoxyphenyl)ethyl)isoindolin-1-one]
60 | COc1ccc(OCC(c2ccc(OC)cc2)N2Cc3cc(F)ccc3C2=O)cc1 (stereo not drawn) [EU1180-521, 5-Fluoro-2-(2-(4-methoxyphenoxy)-1-(4-methoxyphenyl)ethyl)isoindolin-1-one]
25 | COc1ccc(OCC(c2ccc(OC)cc2)N2Cc3ccc(F)cc3C2=O)cc1 (stereo not drawn) [EU1180-522, 6-Fluoro-2-(2-(4-methoxyphenoxy)-1-(4-methoxyphenyl)ethyl)isoindolin-1-one]
94 | COc1ccc(OCC(c2ccc(OC)c(OC)c2)N2Cc3cc(F)ccc3C2=O)cc1 (stereo not drawn) [EU1180-528, 2-(1-(3,4-Dimethoxyphenyl)-2-(4-methoxyphenoxy)ethyl)-5-fluoroisoindolin-1-one]
80 | COc1ccc(OCC(c2ccc(OC)cc2F)N2Cc3cc(F)ccc3C2=O)cc1 (stereo not drawn) [EU1180-536, 5-Fluoro-2-(1-(2-fluoro-4-methoxyphenyl)-2-(4-methoxyphenoxy)ethyl)isoindolin-1-one]
66 | COc1ccc(OCC(c2ccc(OC)cc2F)N2Cc3ccc(F)cc3C2=O)cc1 (stereo not drawn) [EU1180-537, 6-Fluoro-2-(1-(2-fluoro-4-methoxyphenyl)-2-(4-methoxyphenoxy)ethyl)isoindolin-1-one]
